Results on 4 compounds are retold here after patent US9777070B2, “Anti-PTK7 antibody-drug conjugates” (Pfizer Inc., priority 2014, dated 2017).

The subject of assay [1] is Breast-64 (BR64) TNBC PDX. The assay is described as follows: In vivo efficacy, PDX tumor growth. The note with it: 20 mg/kg. Further details: species or system human tumor in NOD/SCID mice. An excerpt: (§1) The effects of anti-PTK7 antibody-drug conjugates were further evaluated on the in vivo growth of human tumor patient-derived xenografts (PDX). Primary tumor resection samples were procured from clinical sites following Institutional Review Board for the Protection of Human Subjects approval and in accordance with HIPAA regulations. Tumor fragments were stored and shipped in Hypothermasol (Biolife Solutions) on ice and were embedded in Matrigel (BD) containing a proprietary mix of growth factors and implanted subcutaneously into the mammary fatpad of female NOD/SCID mice within 24 hours of resection. Mice were monitored for health status daily and for tumor growth initially by visual inspection twice per week. Once the tumors were palpable, measurements of tumor volume began to track tumor growth and estimate cell doubling time. Tumor volume was estimated using the equation V=(A*B^2)/2 where A is the long axis and B is the short axis. When tumors reached a volume of 500 mm^3 to 1,500 mm^3, they were harvested for study and for re-transplant as a patient-derived xenograft (PDX). Depending on the line, mechanical and/or chemical dissociation can be used to separate the individual cells for passage. Live cells were inoculated into naïve animals with 10,000 to 50,000 cells per animals
(§2) For efficacy studies, tumors were harvested from passaging studies and cells were dissociated into single cell suspension. Preparations were counted for live cells using Trypan blue exclusion and 10,000 to 50,000 cells were inoculated per mouse in Matrigel. […] Tumor growth was initially followed by palpability with measurements beginning once tumor volumes reached about 30 mm^3. Studies were randomized based on tumor size once a cohort of tumor-bearing mice reached 140 mm^3 to 180 mm^3. Animals were dosed by intraperitoneal injection twice a week for two weeks (q4dx4). Study groups were followed until individual mice or entire group tumor measurements reached 1200 mm^3 when sacrifice was indicated in accordance with IACUC protocol. For selected dosing studies, pharmacokinetic submandibular bleeds were performed at 2 hours, 36 hours and 72 hours. A volume of 10 μL of blood was immediately pipetted into 90 μL of HBS-P (GE Healthcare). Samples were stored at −80° C. prior to analysis. For each tumor measurement the tumor volume±standard error of the mean (SEM) is provided. GT=Group Terminated due to large tumor size.
(§3) Animals were dosed every four days for four cycles (Q4Dx4) by intraperitoneal injection except the BR5 study which was by intravenous injection on the same schedule. Tumor measurements were recorded one or two times per week using digital calipers and tumor volume was estimated using the equation V=(A×B^2)/2 where A is the long axis and B is the short axis. Animal body weights were measured and recorded at least once a week. Study groups were followed until individual mice or entire group tumor measurements reached 1200 mm^3 at which point sacrifice was indicated in accordance with IACUC protocol. For the BR5 study, animals were sacrificed once tumor volume approached 15% of the body weight at staging in accordance with IACUC protocol.
(§4) Tumor growth inhibition (TGI) was calculated using the equation % TGI=[1−(mean tumor volume of treated)/(mean tumor volume of vehicle)]. TGI was calculated at the latest possible time point, which was typically the last measurement before the control group was discontinued as described above. Tumor regression was defined as a reduction in mean tumor volume after dosing. In cases where tumors regressed, Time To Progression (TTP) indicates the number of days between the first does and the time at which mean tumor volume increased from the previous measurement to a statistically significant degree.

Assay [2] relates to Breast-22 (BR22) TNBC PDX. The assay can be described thus: In vivo efficacy, PDX tumor growth. Further details: species or system human tumor in NOD/SCID mice.
From the text: as §1, §2, §3
(§5) Tumor growth inhibition (TGI) was calculated using the equation % TGI=[1−(mean tumor volume of treated)/(mean tumor volume of vehicle)]. […] Tumor regression was defined as a reduction in mean tumor volume after dosing. In cases where tumors regressed, Time To Progression (TTP) indicates the number of days between the first does and the time at which mean tumor volume increased from the previous measurement to a statistically significant degree.

The test system of assay [3] is Breast-31 (BR31) TNBC PDX. The assay is described as follows: In vivo efficacy, PDX tumor growth. Further details: species or system human tumor in NOD/SCID mice.
From the text: as §1, §2, §3, §5

The subject of a further assay is BR13 TNBC breast tumors. The assay is described as follows: Tumor-initiating cell (TIC) frequency by limit dilution analysis after in vivo treatment. Also noted: species or system human tumor in mice. The conditions noted are these: for # Animals with tumors: 20 mpk. The protocol: To determine whether anti-PTK7 antibody-drug conjugate treatments reduced tumor-initiating cell (TIC) frequency in tumors, BR13 TNBC breast tumors were treated with 4 mg/kg hu24-vc0101 ADC, 4 mg/kg control IgG ADC, or 20 mg/kg docetaxel chemotherapy twice weekly for a total of 3 doses (Days 0, 3 & 7). Live, residual human tumor cells (i.e. hESA^+ mCD45^− mH-2Kd^−) were isolated from dissociated tumors at day 10 and re-implanted into naïve animals in a limit dilution analysis (LDA). Resulting tumor incidence was monitored for up to 40 weeks post-transplant. The day of tumor harvest (day 10) and serial transplantation was chosen based on when tumors were starting to regress following hu24-vc0101 exposure. Tumors were dissociated and stained with anti-human ESA, anti-mouse CD45, and anti-mouse H-2Kd antibodies. Three tumors per treatment group were pooled, and live human tumor cells were sorted by flow cytometry. Groups of 10 mice were injected with either 293, 73, 37 or 15 tumor cells sorted from control IgG ADC treated tumors; 159, 90, 40 or 10 tumor cells sorted from hu24-vc0101 treated tumors; or 257, 33 or 15 tumor cells sorted from docetaxel-treated tumors. Tumors in recipient mice were measured weekly and tumors that exceeded 200 mm^3 in recipient mice were scored as positive. Using Poisson distribution statistics, via L-Calc software (Stemcell Technologies, Vancouver, BC), injected cell doses of recipients with and without tumors by 40 weeks post-transplant were used to calculate the frequency of TIC after each treatment.

Assay [4] relates to non-small cell lung cancer-176 (LU176) PDX. The assay can be described thus: In vivo efficacy, PDX tumor growth. The conditions noted are these: 5 mg/kg. Further details: species or system human tumor in NOD/SCID mice.
From the text: as §1, §2, §3, §4

The test system of assay [5] is Breast-13 (BR13) triple-negative breast cancer (TNBC) PDX. The assay is described as follows: In vivo efficacy, PDX tumor growth. Also noted: species or system human tumor in NOD/SCID mice. The note with it: 1 mg/kg.
From the text: as §1, §2, §3, §4

Assay [6] deals with non-small cell lung cancer-135 (LU135) PDX. The assay is described as follows: In vivo efficacy, PDX tumor growth. Also noted: species or system human tumor in NOD/SCID mice. The note with it: 20 mg/kg.
From the text: as §1, §2, §3, §4

With `CC(=O)O[C@@]12CO[C@@H]1C[C@H](O)[C@@]1(C)C(=O)[C@H](O)C3=C(C)[C@@H](OC(=O)[C@H](O)[C@@H](NC(=O)OC(C)(C)C)c4ccccc4)C[C@@](O)([C@@H](OC(=O)c4ccccc4)[C@H]21)C3(C)C` [docetaxel, reference compound], the “tumor volume ± SEM” value in assay [1] (Day 0) was 543 ± 46 mm^3; in assay [1] (Day 7) it was 1112 ± 97 mm^3; in assay [1] (Day 14), 1805 ± 206 mm^3; in assay [2] (20 mg/kg, Day 0), 182 ± 21 mm^3; in assay [2] (20 mg/kg, Day 7), 154 ± 23 mm^3; in assay [2] (20 mg/kg, Day 14), 107 ± 51 mm^3. For the same compound, the “tumor volume ± SEM” value is 218 ± 98 mm^3 in assay [2] (20 mg/kg, Day 21); 418 ± 165 mm^3 in assay [2] (20 mg/kg, Day 28); 1191 ± 264 mm^3 in assay [2] (20 mg/kg, Day 35); 259 ± 47 mm^3 in assay [3] (20 mg/kg, Day 0); 331 ± 70 mm^3 in assay [3] (20 mg/kg, Day 7); 371 ± 82 mm^3 in assay [3] (20 mg/kg, Day 14). In addition, the “tumor volume ± SEM” value in assay [3] (20 mg/kg, Day 21) came out at 451 ± 91 mm^3; in assay [3] (20 mg/kg, Day 28), 510 ± 103 mm^3; in assay [3] (20 mg/kg, Day 35), 614 ± 117 mm^3; in assay [3] (20 mg/kg, Day 42), 790 ± 117 mm^3; in assay [3] (20 mg/kg, Day 49), 837 ± 126 mm^3; in assay [3] (20 mg/kg, Day 63) it was 1131 ± 148 mm^3. For the same compound, the “tumor volume ± SEM” value in assay [3] (20 mg/kg, Day 70) was found to be 1317 ± 182 mm^3. For the same compound, the “TIC frequency, fold lower than in control IgG ADC treated tumors” value in the assay with BR13 TNBC breast tumors (BR13, 20 mg/kg, Days 0, 3 & 7, tumors harvested day 10, p=0.09) was 2.1 fold. For the same compound, the “# Animals with tumors” value in the assay on BR13 TNBC breast tumors (Group C1, 257 cells implanted per animal, 9 animals in group) worked out at 8; in the assay on BR13 TNBC breast tumors (Group C2, 33 cells implanted per animal, 8 animals in group) it was 1; in the assay on BR13 TNBC breast tumors (Group C3, 15 cells implanted per animal, 6 animals in group) it was 0.

As to `N.N.[Cl][Pt][Cl]` [cisplatin, reference compound], the “tumor volume ± SEM” value in assay [4] (Day 0) is reported as 259 ± 26 mm^3; in assay [4] (Day 7), 124 ± 30 mm^3; in assay [4] (Day 14) it was 97 ± 22 mm^3; in assay [4] (Day 21) it was 102 ± 24 mm^3; in assay [4] (Day 28), 179 ± 71 mm^3; in assay [4] (Day 35), 207 ± 69 mm^3. Besides, the “tumor volume ± SEM” value in assay [4] (Day 42) was 297 ± 97 mm^3; in assay [4] (Day 49), 619 ± 262 mm^3.

With `COc1cccc2c1C(=O)c1c(O)c3c(c(O)c1C2=O)C[C@@](O)(C(=O)CO)C[C@@H]3O[C@H]1C[C@H](N)[C@H](O)[C@H](C)O1` [Doxorubicin, doxorubicin, reference compound], the “tumor volume ± SEM” value worked out at 156 ± 13 mm^3 in assay [5] (Day 0); 219 ± 29 mm^3 in assay [5] (Day 7); 295 ± 39 mm^3 in assay [5] (Day 14); 353 ± 45 mm^3 in assay [5] (Day 21); 432 ± 50 mm^3 in assay [5] (Day 28); 696 ± 84 mm^3 in assay [5] (Day 35). Moreover, the “tumor volume ± SEM” value was 1001 ± 159 mm^3 in assay [5] (Day 42); 297 ± 17 mm^3 in assay [2] (Day 0, 1.5 mg/kg); 641 ± 39 mm^3 in assay [2] (Day 14, 1.5 mg/kg); 160 ± 11 mm^3 in assay [3] (1.5 mg/kg, Day 0); 304 ± 20 mm^3 in assay [3] (1.5 mg/kg, Day 7); 759 ± 111 mm^3 in assay [3] (1.5 mg/kg, Day 28).

Consider `CC(=O)O[C@H]1C(=O)[C@@]2(C)[C@H]([C@H](OC(=O)c3ccccc3)[C@]3(O)C[C@H](OC(=O)[C@H](O)[C@@H](NC(=O)c4ccccc4)c4ccccc4)C(C)=C1C3(C)C)[C@]1(OC(C)=O)CO[C@@H]1C[C@@H]2O` [paclitaxel, reference compound], for which the “tumor volume ± SEM” value was 175 ± 24 mm^3 in assay [6] (Day 0); 77 ± 13 mm^3 in assay [6] (Day 7); 58 ± 12 mm^3 in assay [6] (Day 14); 60 ± 11 mm^3 in assay [6] (Day 21); 93 ± 20 mm^3 in assay [6] (Day 28); 110 ± 31 mm^3 in assay [6] (Day 35). Further, the “tumor volume ± SEM” value was found to be 184 ± 48 mm^3 in assay [6] (Day 42); 284 ± 78 mm^3 in assay [6] (Day 49); 384 ± 106 mm^3 in assay [6] (Day 56); 538 ± 178 mm^3 in assay [6] (Day 63); 667 ± 174 mm^3 in assay [6] (Day 70); 724 ± 171 mm^3 in assay [6] (Day 77).
